Experimental data from PubChem BioAssay (NCI).
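Cultured in 96-well plates, cells were exposed to test compound for 48 hours across five concentrations. TGI: concentration producing complete growth inhibition.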

Experiments:
Experiment in all cases: DTP human tumour cell line panel, 48 h
[1] = system: SK-MEL-28 melanoma
[2] = system: RPMI-8226 leukemia
[3] = system: SF-539 CNS
[4] = system: LOX IMVI melanoma
[5] = system: KM12 colon
[6] = system: K-562 leukemia
[7] = system: HCT-116 colon
[8] = system: SR leukemia
[9] = system: COLO 205 colon
[10] = system: M19-MEL melanoma
[11] = system: HOP-62 NSCLC
[12] = system: ACHN renal
[13] = system: MOLT-4 leukemia
[14] = system: HCC-2998 colon
[15] = system: OVCAR-4 ovarian
[16] = system: SW-620 colon
[17] = system: HCT-15 colon
[18] = system: SK-MEL-2 melanoma
[19] = system: OVCAR-3 ovarian
[20] = system: DLD-1 colon
[21] = system: SNB-75 CNS
[22] = system: M14 melanoma
[23] = system: CAKI-1 renal
[24] = system: SK-OV-3 ovarian
[25] = system: UACC-62 melanoma
[26] = system: SNB-19 CNS
[27] = system: NCI-H226 lung
[28] = system: A498 renal
[29] = system: HOP-92 NSCLC
[30] = system: SNB-78 CNS
[31] = system: DMS 114 small cell lung
[32] = system: CCRF-CEM leukemia
[33] = system: DMS 273 small cell lung
[34] = system: LXFL 529 NSCLC
[35] = system: HOP-18 NSCLC
[36] = system: IGROV1 ovarian
[37] = system: KM20L2 colon
[38] = system: U251 CNS
[39] = system: HL-60(TB) leukemia
[40] = system: RXF 393 renal
[41] = system: OVCAR-8 ovarian
[42] = system: SK-MEL-5 melanoma
[43] = system: OVCAR-5 ovarian
[44] = system: EKVX NSCLC
[45] = system: NCI-H522 lung
[46] = system: NCI-H23 lung
[47] = system: TK-10 renal
[48] = system: UO-31 renal
[49] = system: UACC-257 melanoma
[50] = system: SF-295 CNS
[51] = system: MALME-3M melanoma
[52] = system: SN12C renal
[53] = system: NCI-H460 lung
[54] = system: 786-0 renal
[55] = system: HT29 colon
[56] = system: SF-268 CNS
[57] = system: A549 NSCLC

**Q.** What does the source list for `CN=c1ss/c(=N\C(=S)N(C)C)n1-c1ccccc1`?
**A.** TGI [1]: > 100 µM; TGI [2]: > 100 µM; TGI [3]: > 100 µM; TGI [4]: > 100 µM; TGI [5]: > 100 µM; TGI [6]: > 100 µM; TGI [7]: > 100 µM; TGI [8]: > 100 µM; TGI [9]: > 100 µM; TGI [10]: > 100 µM; TGI [11]: > 100 µM; TGI [12]: > 100 µM; TGI [13]: > 100 µM; TGI [14]: > 100 µM; TGI [15]: > 100 µM; TGI [16]: > 100 µM; TGI [17]: > 100 µM; TGI [18]: > 100 µM; TGI [19]: > 100 µM; TGI [20]: > 100 µM; TGI [21]: 42.6 µM; TGI [22]: > 100 µM; TGI [23]: > 100 µM; TGI [24]: > 100 µM; TGI [25]: > 100 µM; TGI [26]: > 100 µM; TGI [27]: > 100 µM; TGI [28]: > 100 µM; TGI [29]: > 100 µM; TGI [30]: > 100 µM; TGI [31]: > 100 µM; TGI [32]: > 100 µM; TGI [33]: > 100 µM; TGI [34]: > 100 µM; TGI [35]: > 100 µM; TGI [36]: > 100 µM; TGI [37]: > 100 µM; TGI [38]: > 100 µM; TGI [39]: > 100 µM; TGI [40]: > 82.1 µM; TGI [41]: > 100 µM; TGI [42]: > 100 µM; TGI [43]: > 100 µM; TGI [44]: > 100 µM; TGI [45]: > 28.5 µM; TGI [46]: > 100 µM; TGI [47]: > 100 µM; TGI [48]: > 100 µM; TGI [49]: > 100 µM; TGI [50]: > 100 µM; TGI [51]: > 100 µM; TGI [52]: > 100 µM; TGI [53]: > 100 µM; TGI [54]: > 100 µM; TGI [55]: > 31.6 µM; TGI [56]: > 100 µM; TGI [57]: > 100 µM
